Assay [1] concerns Erysiphe graminis f sp. tritici. Put plainly: Test G: wheat powdery mildew, preventive spray on wheat seedlings. The conditions noted are these: wheat powdery mildew, 100 = 100% disease control, 0 = no control.
The subject of a further assay is Zymoseptoria tritici. Description: Test E: wheat leaf blotch, preventive spray on wheat seedlings. The conditions noted are these: wheat leaf blotch, 100 = 100% disease control, 0 = no control.
The test system of another assay is Botrytis cinerea. Description: Test B: gray mold, preventive spray on tomato seedlings. The following applies: gray mold on tomato, 100 = 100% disease control, 0 = no control.
The subject of assay [2] is Puccinia recondita f sp. tritici. Description: Test F: wheat leaf rust, preventive spray on wheat seedlings. The following applies: wheat leaf rust, 100 = 100% disease control, 0 = no control.
For the next assay, the system named is Stagonospora nodorum. Description: Test D: wheat glume blotch, preventive spray on wheat seedlings. The following applies: wheat glume blotch, 100 = 100% disease control, 0 = no control.

From the text for Botrytis cinerea: General protocol for preparing test solutions for Tests A-G: the test compounds were first dissolved in acetone in an amount equal to 3% of the final volume and then suspended at the desired concentration (in ppm) in acetone and purified water (50/50 mix by volume) containing 250 ppm of the surfactant PEG400 (polyhydric alcohol esters). The resulting test suspensions were then used in Tests A-G. Compounds were sprayed at a concentration of 50 ppm (*) or 10 ppm to the point of run-off on the test plants, the equivalent of a rate of 200 g/ha or 40 g/ha, respectively.
The test solution was sprayed to the point of run-off on tomato seedlings. The following day the seedlings were inoculated with a spore suspension of Botrytis cinerea (the causal agent of gray mold on many crops) and incubated in a saturated atmosphere at 20° C. for 48 h, and moved to a growth chamber at 27° C. for 2 days, after which time visual disease ratings were made.
Compounds with an asterisks (*) were applied at a concentration of 50 ppm, otherwise test solutions were applied at 10 ppm.

Regarding `OC(Cn1cncn1)(C1=NOC(c2ccc(Cl)cc2)C1)c1ccc(Oc2ccccc2)cc1` (single isomer, unassigned) [Compound 128], in assay [1] (50 ppm (asterisk)), the “Test G rating (% disease control)” value was 99%. Also, the “Test E rating (% disease control)” value with Zymoseptoria tritici (50 ppm (asterisk)) is 95%. Further, the “Test B rating (% disease control)” value in the assay on Botrytis cinerea (50 ppm (asterisk)) turned out to be 0%. In addition, the “Test F rating (% disease control)” value in assay [2] (50 ppm (asterisk)) was 100%. Besides, the “Test D rating (% disease control)” value in the assay on Stagonospora nodorum (50 ppm (asterisk)) is 100%.
Take `CC(C)(C)C(O)(Cn1cncn1)C1=NOC(COc2ccc(F)cc2)C1` (single isomer, unassigned) [Compound 79]: the “Test G rating (% disease control)” value in assay [1] (10 ppm) is given as 99%. Besides, in the assay on Zymoseptoria tritici (10 ppm), the “Test E rating (% disease control)” value was 21%. The “Test B rating (% disease control)” value in the assay with Botrytis cinerea (10 ppm) was determined as 97%. Also, in assay [2] (10 ppm), the “Test F rating (% disease control)” value is listed as 100%. Also, the “Test D rating (% disease control)” value in the assay on Stagonospora nodorum (10 ppm) was 100%.
As to `CC(C)(C)C(O)(Cn1cncn1)C1=NOC(Cn2ccc(C(F)(F)F)n2)C1` (single isomer, unassigned) [Compound 49], the “Test G rating (% disease control)” value in assay [1] (10 ppm) came out at 99%. Also, the “Test E rating (% disease control)” value in the assay on Zymoseptoria tritici (10 ppm) came to 0%. For the same compound, the “Test B rating (% disease control)” value in the assay on Botrytis cinerea (10 ppm) came out at 11%. Moreover, the “Test F rating (% disease control)” value in assay [2] (10 ppm) stood at 99%. Besides, the “Test D rating (% disease control)” value in the assay with Stagonospora nodorum (10 ppm) is 82%.
As to `OC(Cn1cncn1)(C1=NOC(COCc2ccccc2)C1)c1ccc(Cl)cc1` (single isomer, unassigned) [Compound 58], in assay [1] (10 ppm), the “Test G rating (% disease control)” value is 68%. For the same compound, the “Test E rating (% disease control)” value in the assay with Zymoseptoria tritici (10 ppm) stood at 0%. Also, the “Test B rating (% disease control)” value in the assay with Botrytis cinerea (10 ppm) turned out to be 0%. For the same compound, the “Test F rating (% disease control)” value in assay [2] (10 ppm) came to 0%. Besides, the “Test D rating (% disease control)” value in the assay with Stagonospora nodorum (10 ppm) is reported as 0%.
With `CC(C)(C)CC(O)(Cn1cncn1)C1=NOC(Cc2ccc(Cl)cc2)C1` (single isomer, unassigned) [Compound 206], the “Test G rating (% disease control)” value in assay [1] (10 ppm) is on record as 99%. Moreover, in the assay on Zymoseptoria tritici (10 ppm), the “Test E rating (% disease control)” value is 13%. Further, the “Test B rating (% disease control)” value in the assay on Botrytis cinerea (10 ppm) was 9%. Further, the “Test F rating (% disease control)” value in assay [2] (10 ppm) was determined as 100%. Besides, in the assay on Stagonospora nodorum (10 ppm), the “Test D rating (% disease control)” value turned out to be 86%.
`OC(Cn1cncn1)(C1=NOC(Cc2ccc(C(F)(F)F)cc2)C1)c1ccc(Cl)cc1` (single isomer, unassigned) [Compound 202]: in assay [1] (10 ppm), the “Test G rating (% disease control)” value is on record as 99%. Besides, in the assay on Zymoseptoria tritici (10 ppm), the “Test E rating (% disease control)” value is reported as 21%. In the assay on Botrytis cinerea (10 ppm), the “Test B rating (% disease control)” value was determined as 0%. Moreover, in assay [2] (10 ppm), the “Test F rating (% disease control)” value worked out at 100%. In the assay with Stagonospora nodorum (10 ppm), the “Test D rating (% disease control)” value is 59%.
For the compound `OC(Cn1cncn1)(C1=NOC(c2ccc(Cl)cc2)C1)c1ccc(C(F)(F)F)cc1` (single isomer, unassigned) [Compound 105], the “Test G rating (% disease control)” value in assay [1] (10 ppm) is 99%. Also, in the assay on Zymoseptoria tritici (10 ppm), the “Test E rating (% disease control)” value is on record as 8%. Besides, the “Test B rating (% disease control)” value in the assay on Botrytis cinerea (10 ppm) worked out at 0%. Moreover, the “Test F rating (% disease control)” value in assay [2] (10 ppm) amounted to 100%. The “Test D rating (% disease control)” value in the assay with Stagonospora nodorum (10 ppm) turned out to be 96%.
For `CC(C)(C)CC(O)(Cn1cncn1)C1=NOC(c2ccc(Cl)cc2)C1` (single isomer, unassigned) [Compound 139], in that order: 99%, 6%, 0%, 100% and 99%.
Regarding `C[S+]([O-])c1ccc(C2CC(C(O)(Cn3cncn3)c3ccc(Cl)cc3)=NO2)cc1` (single isomer, unassigned) [Compound 112], the “Test G rating (% disease control)” value in assay [1] (10 ppm) worked out at 69%. Further, in the assay with Zymoseptoria tritici (10 ppm), the “Test E rating (% disease control)” value turned out to be 80%. For the same compound, in the assay with Botrytis cinerea (10 ppm), the “Test B rating (% disease control)” value is reported as 0%. For the same compound, the “Test F rating (% disease control)” value in assay [2] (10 ppm) is reported as 65%. In addition, the “Test D rating (% disease control)” value in the assay with Stagonospora nodorum (10 ppm) turned out to be 0%.
As for `OC(Cn1cncn1)(C1=NOC(c2ccc(Cl)cc2)C1)c1ccc(F)cc1` (single isomer, unassigned) [Compound 160], in assay [1] (10 ppm), the “Test G rating (% disease control)” value is 100%. Besides, the “Test E rating (% disease control)” value in the assay with Zymoseptoria tritici (10 ppm) worked out at 11%. Moreover, in the assay with Botrytis cinerea (10 ppm), the “Test B rating (% disease control)” value is 75%. Also, in assay [2] (10 ppm), the “Test F rating (% disease control)” value is on record as 100%. For the same compound, the “Test D rating (% disease control)” value with Stagonospora nodorum (10 ppm) came out at 99%.
For the compound `CC(C)(C)C(O)(Cn1cncn1)C1=NOC(CSc2ccccc2)C1` (single isomer, unassigned) [Compound 73], the “Test G rating (% disease control)” value in assay [1] (10 ppm) is 56%. Besides, in the assay with Zymoseptoria tritici (10 ppm), the “Test E rating (% disease control)” value came to 0%. The “Test B rating (% disease control)” value in the assay on Botrytis cinerea (10 ppm) worked out at 25%. Besides, in assay [2] (10 ppm), the “Test F rating (% disease control)” value stood at 9%. Moreover, in the assay with Stagonospora nodorum (10 ppm), the “Test D rating (% disease control)” value was determined as 62%.
On the same counts, the results for `OC(Cn1cncn1)(C1=NOC(CSc2ccccc2)C1)c1ccc(Cl)cc1` (single isomer, unassigned) [Compound 50] are 94%, 3%, 19%, 99% and 87%.
For the compound `OC(Cn1cncn1)(C1=NOC(c2ccc(Oc3ccccc3)cc2)C1)c1ccc(Cl)cc1` (single isomer, unassigned) [Compound 142], the “Test G rating (% disease control)” value in assay [1] (10 ppm) amounted to 99%. Moreover, in the assay on Zymoseptoria tritici (10 ppm), the “Test E rating (% disease control)” value was determined as 91%. In addition, in the assay with Botrytis cinerea (10 ppm), the “Test B rating (% disease control)” value is given as 0%. The “Test F rating (% disease control)” value in assay [2] (10 ppm) is 100%. Besides, the “Test D rating (% disease control)” value in the assay with Stagonospora nodorum (10 ppm) was 86%.
On the same counts, the results for `CCC(C)(C)C(O)(Cn1cncn1)C1=NOC(Cc2ccc(Cl)cc2)C1` (single isomer, unassigned) [Compound 17] are 100%, 7%, 51%, 100% and 98%.
Consider `CC(C)(C)CC(O)(Cn1cncn1)C1=NOC(COc2ccc(Cl)cc2)C1` (single isomer, unassigned) [Compound 172], for which, in assay [1] (10 ppm), the “Test G rating (% disease control)” value is 99%. Moreover, in the assay on Zymoseptoria tritici (10 ppm), the “Test E rating (% disease control)” value amounted to 4%. Moreover, the “Test B rating (% disease control)” value in the assay on Botrytis cinerea (10 ppm) came to 0%. The “Test F rating (% disease control)” value in assay [2] (10 ppm) is given as 100%. In addition, the “Test D rating (% disease control)” value in the assay with Stagonospora nodorum (10 ppm) worked out at 100%.
In the case of `CC(C)(C)C(O)(Cn1cncn1)C1=NOC(c2ccc(-n3cc(Br)cn3)cc2)C1` (single isomer, unassigned) [Compound 7], the “Test G rating (% disease control)” value in assay [1] (10 ppm) is recorded as 100%. Besides, the “Test E rating (% disease control)” value in the assay on Zymoseptoria tritici (10 ppm) came to 14%. Moreover, the “Test B rating (% disease control)” value with Botrytis cinerea (10 ppm) came to 99%. The “Test F rating (% disease control)” value in assay [2] (10 ppm) was found to be 100%. For the same compound, the “Test D rating (% disease control)” value in the assay with Stagonospora nodorum (10 ppm) was determined as 0%.
On to `OC(Cn1cncn1)(C1=NOC(Cc2ccc(Cl)cc2)C1)c1ccc(Cl)cc1` (single isomer, unassigned) [Compound 199], for which, in assay [1] (10 ppm), the “Test G rating (% disease control)” value came to 100%. In addition, the “Test E rating (% disease control)” value in the assay on Zymoseptoria tritici (10 ppm) is 0%. Besides, the “Test B rating (% disease control)” value with Botrytis cinerea (10 ppm) worked out at 0%. Moreover, the “Test F rating (% disease control)” value in assay [2] (10 ppm) amounted to 100%. For the same compound, the “Test D rating (% disease control)” value in the assay with Stagonospora nodorum (10 ppm) was found to be 86%.
As to `CC(C)(C)C(O)(Cn1cncn1)C1=NOC(COc2ccc(OC(F)(F)F)cc2)C1` (single isomer, unassigned) [Compound 24], the “Test G rating (% disease control)” value in assay [1] (10 ppm) turned out to be 100%. Moreover, the “Test E rating (% disease control)” value in the assay with Zymoseptoria tritici (10 ppm) is on record as 0%. Also, the “Test B rating (% disease control)” value in the assay with Botrytis cinerea (10 ppm) was found to be 37%. In addition, the “Test F rating (% disease control)” value in assay [2] (10 ppm) is 100%. In the assay on Stagonospora nodorum (10 ppm), the “Test D rating (% disease control)” value was determined as 99%.
Regarding `OC(Cn1cncn1)(C1=NOC(COc2ccc(OCc3ccccc3)cc2)C1)c1ccc(Cl)cc1` (single isomer, unassigned) [Compound 70], in assay [1] (10 ppm), the “Test G rating (% disease control)” value is 76%. The “Test E rating (% disease control)” value in the assay on Zymoseptoria tritici (10 ppm) is reported as 0%. Also, the “Test B rating (% disease control)” value in the assay on Botrytis cinerea (10 ppm) is on record as 28%. The “Test F rating (% disease control)” value in assay [2] (10 ppm) was 9%. For the same compound, the “Test D rating (% disease control)” value in the assay with Stagonospora nodorum (10 ppm) is 47%.
Turning to `CC(C)(C)C(O)(Cn1cncn1)C1=NOC(COc2ccc(F)cc2)C1` (single isomer, unassigned) [Compound 80], the “Test G rating (% disease control)” value in assay [1] (10 ppm) amounted to 99%. Further, the “Test E rating (% disease control)” value with Zymoseptoria tritici (10 ppm) is reported as 1%. Moreover, in the assay with Botrytis cinerea (10 ppm), the “Test B rating (% disease control)” value turned out to be 82%. In assay [2] (10 ppm), the “Test F rating (% disease control)” value is listed as 100%. For the same compound, in the assay with Stagonospora nodorum (10 ppm), the “Test D rating (% disease control)” value was determined as 100%.
In the case of `CC(C)(C)CC1CC(C(O)(Cn2cncn2)C(C)(C)C)=NO1` (single isomer, unassigned) [Compound 77], in assay [1] (10 ppm), the “Test G rating (% disease control)” value is on record as 13%. In the assay on Zymoseptoria tritici (10 ppm), the “Test E rating (% disease control)” value is 0%. Moreover, the “Test B rating (% disease control)” value with Botrytis cinerea (10 ppm) is 0%. In assay [2] (10 ppm), the “Test F rating (% disease control)” value amounted to 0%. Moreover, in the assay with Stagonospora nodorum (10 ppm), the “Test D rating (% disease control)” value was found to be 0%.
`OC(Cn1cncn1)(C1=NOC(Cn2ccc(C(F)(F)F)n2)C1)c1ccc(Cl)cc1` (single isomer, unassigned) [Compound 194]: the “Test G rating (% disease control)” value in assay [1] (10 ppm) is listed as 99%. For the same compound, the “Test E rating (% disease control)” value with Zymoseptoria tritici (10 ppm) was 0%. Further, the “Test B rating (% disease control)” value with Botrytis cinerea (10 ppm) stood at 0%. Also, the “Test F rating (% disease control)” value in assay [2] (10 ppm) is 100%. The “Test D rating (% disease control)” value in the assay with Stagonospora nodorum (10 ppm) was determined as 11%.
Consider `OC(Cn1cncn1)(C1=NOC(c2ccc(Cl)cc2)C1)c1ccc(Cl)cc1Cl` (single isomer, unassigned) [Compound 141], for which, in assay [1] (10 ppm), the “Test G rating (% disease control)” value came to 84%. Moreover, the “Test E rating (% disease control)” value in the assay on Zymoseptoria tritici (10 ppm) amounted to 1%. Besides, in the assay with Botrytis cinerea (10 ppm), the “Test B rating (% disease control)” value was 0%. Also, in assay [2] (10 ppm), the “Test F rating (% disease control)” value came out at 99%. Besides, the “Test D rating (% disease control)” value with Stagonospora nodorum (10 ppm) was 0%.

Source of the values: US20160242416A1, “FUNGICIDAL ISOXAZOLINE CARBINOLS” (E I DU PONT DE NEMOURS AND COMPANY, priority 2015, published 2016).
